Experimental data as given in ChEMBL document CHEMBL1201862, “PubChem BioAssay data set” (2004).
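Step 1: Grow cells in 96-well plates. Step 2: Expose to compound for 48 hours at 5 concentrations. Step 3: Interpolate endpoints linearly; if unreached, use highest concentration. At the GI50, growth is halved.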 Calls of active or inactive are those of the source. Rule as the data show it: active = GI50 up to about 1.1 µM and inactive = higher.

Tests used:
Assay in all cases: NCI anticancer screen, dose series, 48 h
IGROV-1 = test system: IGROV-1
SF-539 = test system: SF-539
Hs-578T = test system: Hs-578T
HOP-92 = test system: HOP-92
CAKI-1 = test system: CAKI-1
SK-OV-3 = test system: SK-OV-3
LOX IMVI = test system: LOX IMVI
DU-145 = test system: DU-145
MCF7 = test system: MCF7
Malme-3M = test system: Malme-3M
UO-31 = test system: UO-31
U-251 = test system: U-251
HL-60 = test system: HL-60
HOP-62 = test system: HOP-62
SW-620 = test system: SW-620
SNB-75 = test system: SNB-75
CCRF-CEM = test system: CCRF-CEM
HT-29 = test system: HT-29
MDA-MB-231 = test system: MDA-MB-231
SR = test system: SR

Cc1ccc(/C=C2\CCCc3ccccc3C2=O)cc1
GI50 (IGROV-1): 7.14 µM (inactive) | GI50 (SF-539): 13.8 µM (inactive) | GI50 (Hs-578T): 12.4 µM (inactive) | GI50 (HOP-92): 18.5 µM (inactive) | GI50 (CAKI-1): 27.2 µM (inactive) | GI50 (SK-OV-3): 13.2 µM (inactive) | GI50 (LOX IMVI): 14.9 µM (inactive) | GI50 (DU-145): 22.2 µM (inactive) | GI50 (MCF7): 18.3 µM (inactive) | GI50 (Malme-3M): 8.95 µM (inactive) | GI50 (UO-31): 29.6 µM (inactive) | GI50 (U-251): 17.4 µM (inactive) | GI50 (HL-60): 11.2 µM (inactive) | GI50 (HOP-62): 9.2 µM (inactive) | GI50 (SW-620): 22.9 µM (inactive) | GI50 (SNB-75): 21.2 µM (inactive) | GI50 (CCRF-CEM): 15.1 µM (inactive) | GI50 (HT-29): 3.18 µM (inactive) | GI50 (MDA-MB-231): 9.62 µM (inactive) | GI50 (SR): 13.9 µM (inactive)

CCOC(=O)C1(C(=O)OCC)C[C@H](C)[C@](C)(O)C1
GI50 (IGROV-1): > 100 µM (inactive) | GI50 (SF-539): > 100 µM (inactive) | GI50 (Hs-578T): > 100 µM (inactive) | GI50 (HOP-92): > 100 µM (inactive) | GI50 (CAKI-1): > 100 µM (inactive) | GI50 (SK-OV-3): > 100 µM (inactive) | GI50 (LOX IMVI): > 100 µM (inactive) | GI50 (DU-145): > 100 µM (inactive) | GI50 (MCF7): > 100 µM (inactive) | GI50 (Malme-3M): > 100 µM (inactive) | GI50 (UO-31): > 100 µM (inactive) | GI50 (U-251): > 100 µM (inactive) | GI50 (HL-60): 37.8 µM (inactive) | GI50 (HOP-62): > 100 µM (inactive) | GI50 (SW-620): > 100 µM (inactive) | GI50 (SNB-75): > 100 µM (inactive) | GI50 (CCRF-CEM): > 100 µM (inactive) | GI50 (HT-29): > 100 µM (inactive) | GI50 (MDA-MB-231): > 100 µM (inactive) | GI50 (SR): > 100 µM (inactive)

CC(C)N(CC(=O)O)CC(=O)O
GI50 (IGROV-1): > 100 µM (inactive) | GI50 (SF-539): > 100 µM (inactive) | GI50 (Hs-578T): > 100 µM (inactive) | GI50 (HOP-92): > 100 µM (inactive) | GI50 (CAKI-1): > 100 µM (inactive) | GI50 (SK-OV-3): > 100 µM (inactive) | GI50 (LOX IMVI): > 100 µM (inactive) | GI50 (DU-145): > 100 µM (inactive) | GI50 (MCF7): > 100 µM (inactive) | GI50 (Malme-3M): > 100 µM (inactive) | GI50 (UO-31): > 100 µM (inactive) | GI50 (U-251): > 100 µM (inactive) | GI50 (HL-60): > 100 µM (inactive) | GI50 (HOP-62): > 100 µM (inactive) | GI50 (SW-620): > 100 µM (inactive) | GI50 (SNB-75): > 100 µM (inactive) | GI50 (CCRF-CEM): > 100 µM (inactive) | GI50 (HT-29): > 100 µM (inactive) | GI50 (MDA-MB-231): > 100 µM (inactive) | GI50 (SR): > 100 µM (inactive)

c1ccc(CSc2ccccc2CN2CCN(Cc3ccccc3SCc3ccccc3)CCN(Cc3ccccc3SCc3ccccc3)CC2)cc1
GI50 (SF-539): 1.86 µM (inactive) | GI50 (Hs-578T): 1.85 µM (inactive) | GI50 (HOP-92): 0.359 µM (active) | GI50 (CAKI-1): 3.21 µM (inactive) | GI50 (SK-OV-3): 2.21 µM (inactive) | GI50 (LOX IMVI): 1.33 µM (inactive) | GI50 (DU-145): 2.94 µM (inactive) | GI50 (MCF7): 1.48 µM (inactive) | GI50 (Malme-3M): 1.71 µM (inactive) | GI50 (UO-31): 2.59 µM (inactive) | GI50 (U-251): 0.869 µM (active) | GI50 (HL-60): 1.5 µM (inactive) | GI50 (HOP-62): 1.93 µM (inactive) | GI50 (SW-620): 2.38 µM (inactive) | GI50 (SNB-75): 1.6 µM (inactive) | GI50 (CCRF-CEM): 2.35 µM (inactive) | GI50 (HT-29): 0.499 µM (active) | GI50 (MDA-MB-231): 1.51 µM (inactive) | GI50 (SR): 2.16 µM (inactive)

Cc1cc([C@H](C#N)c2nc3ccccc3s2)nc(Cl)n1
GI50 (IGROV-1): 3.52 µM (inactive) | GI50 (SF-539): 4.92 µM (inactive) | GI50 (Hs-578T): 4.71 µM (inactive) | GI50 (HOP-92): 2.32 µM (inactive) | GI50 (CAKI-1): 4.51 µM (inactive) | GI50 (SK-OV-3): 5.66 µM (inactive) | GI50 (LOX IMVI): 2.89 µM (inactive) | GI50 (DU-145): 23.7 µM (inactive) | GI50 (MCF7): 4.41 µM (inactive) | GI50 (Malme-3M): 3.81 µM (inactive) | GI50 (UO-31): 4.39 µM (inactive) | GI50 (U-251): 2.86 µM (inactive) | GI50 (HL-60): 3.67 µM (inactive) | GI50 (HOP-62): 4.66 µM (inactive) | GI50 (SW-620): 3.04 µM (inactive) | GI50 (SNB-75): 2.21 µM (inactive) | GI50 (CCRF-CEM): 3.82 µM (inactive) | GI50 (HT-29): 3.88 µM (inactive) | GI50 (MDA-MB-231): 3 µM (inactive) | GI50 (SR): 1.31 µM (inactive)

Nc1ccccc1/N=C/c1cc2cc([N+](=O)[O-])ccc2s1
GI50 (IGROV-1): 7.59 µM (inactive) | GI50 (SF-539): 12.1 µM (inactive) | GI50 (Hs-578T): 15.1 µM (inactive) | GI50 (HOP-92): 18.9 µM (inactive) | GI50 (CAKI-1): 15.5 µM (inactive) | GI50 (SK-OV-3): 13.9 µM (inactive) | GI50 (LOX IMVI): 13.9 µM (inactive) | GI50 (DU-145): 12.6 µM (inactive) | GI50 (MCF7): 5.27 µM (inactive) | GI50 (Malme-3M): 26.6 µM (inactive) | GI50 (UO-31): 15.7 µM (inactive) | GI50 (U-251): 14.5 µM (inactive) | GI50 (HL-60): 7.43 µM (inactive) | GI50 (HOP-62): 16.8 µM (inactive) | GI50 (SW-620): 29.5 µM (inactive) | GI50 (SNB-75): 14.4 µM (inactive) | GI50 (CCRF-CEM): 5.01 µM (inactive) | GI50 (HT-29): 25.8 µM (inactive) | GI50 (MDA-MB-231): 16.3 µM (inactive) | GI50 (SR): 11 µM (inactive)

CN(C)CC1CCCC(CN2CCCCC2)C1=O (centres undefined)
GI50 (IGROV-1): 17 µM (inactive) | GI50 (SF-539): 17.5 µM (inactive) | GI50 (Hs-578T): 19.7 µM (inactive) | GI50 (HOP-92): 1.96 µM (inactive) | GI50 (CAKI-1): 1.53 µM (inactive) | GI50 (SK-OV-3): > 62.7 µM (inactive) | GI50 (LOX IMVI): 8.26 µM (inactive) | GI50 (DU-145): 18.2 µM (inactive) | GI50 (MCF7): 1.07 µM (active) | GI50 (Malme-3M): 3.33 µM (inactive) | GI50 (UO-31): 17.2 µM (inactive) | GI50 (U-251): > 54.6 µM (inactive) | GI50 (HL-60): 2.18 µM (inactive) | GI50 (HOP-62): > 100 µM (inactive) | GI50 (SW-620): 1.87 µM (inactive) | GI50 (SNB-75): 19.4 µM (inactive) | GI50 (CCRF-CEM): 0.762 µM (active) | GI50 (HT-29): 5.4 µM (inactive) | GI50 (MDA-MB-231): 15.1 µM (inactive) | GI50 (SR): 10.8 µM (inactive)

COC1C(O)=C2C(=O)O/C(C)=C/C=C/C=C/C=C\CC(c3ccccc3)NC(=O)\C=C/C=C\C=C\C=C\[C@@]2(C)[C@@H]1O (some centres undefined)
GI50 (IGROV-1): < 0.0211 µM (active) | GI50 (SF-539): < 0.01 µM (active) | GI50 (Hs-578T): < 0.01 µM (active) | GI50 (HOP-92): < 0.01 µM (active) | GI50 (CAKI-1): < 0.0203 µM (active) | GI50 (SK-OV-3): < 0.021 µM (active) | GI50 (LOX IMVI): 0.0176 µM (active) | GI50 (DU-145): 0.0117 µM (active) | GI50 (MCF7): < 0.01 µM (active) | GI50 (Malme-3M): < 0.0223 µM (active) | GI50 (UO-31): < 0.0161 µM (active) | GI50 (U-251): < 0.01 µM (active) | GI50 (HL-60): < 0.01 µM (active) | GI50 (HOP-62): < 0.0334 µM (active) | GI50 (SW-620): < 0.01 µM (active) | GI50 (SNB-75): < 0.01 µM (active) | GI50 (CCRF-CEM): < 0.01 µM (active) | GI50 (HT-29): < 0.01 µM (active) | GI50 (MDA-MB-231): < 0.01 µM (active) | GI50 (SR): < 0.0125 µM (active)

CCOC(=O)CCSc1nc2ccc(I)cc2c(=O)n1Cc1ccccc1
GI50 (IGROV-1): 9.91 µM (inactive) | GI50 (SF-539): 36.4 µM (inactive) | GI50 (Hs-578T): 25.2 µM (inactive) | GI50 (HOP-92): 13.6 µM (inactive) | GI50 (CAKI-1): 2.67 µM (inactive) | GI50 (SK-OV-3): > 69.8 µM (inactive) | GI50 (LOX IMVI): 28.2 µM (inactive) | GI50 (DU-145): 37.1 µM (inactive) | GI50 (MCF7): 29.1 µM (inactive) | GI50 (Malme-3M): 17.9 µM (inactive) | GI50 (UO-31): 0.395 µM (active) | GI50 (U-251): 33 µM (inactive) | GI50 (HL-60): 19.5 µM (inactive) | GI50 (HOP-62): 26.5 µM (inactive) | GI50 (SW-620): 41.1 µM (inactive) | GI50 (SNB-75): 30.3 µM (inactive) | GI50 (CCRF-CEM): 15.8 µM (inactive) | GI50 (HT-29): 34.4 µM (inactive) | GI50 (MDA-MB-231): 28.2 µM (inactive) | GI50 (SR): 7.24 µM (inactive)

CC(=O)OCC1OC(n2c(N)c(C#N)c(-c3cccc(Cl)c3)c(C#N)c2=S)C(OC(C)=O)C(OC(C)=O)C1OC(C)=O (centres undefined)
GI50 (IGROV-1): 30.5 µM (inactive) | GI50 (SF-539): 12.6 µM (inactive) | GI50 (Hs-578T): 20 µM (inactive) | GI50 (HOP-92): 23 µM (inactive) | GI50 (CAKI-1): 26.8 µM (inactive) | GI50 (SK-OV-3): 20.7 µM (inactive) | GI50 (LOX IMVI): 14.7 µM (inactive) | GI50 (DU-145): 18.2 µM (inactive) | GI50 (MCF7): 21.5 µM (inactive) | GI50 (Malme-3M): 25.2 µM (inactive) | GI50 (UO-31): 40.2 µM (inactive) | GI50 (U-251): 22.8 µM (inactive) | GI50 (HL-60): 17.9 µM (inactive) | GI50 (HOP-62): 23.3 µM (inactive) | GI50 (SW-620): 32.7 µM (inactive) | GI50 (SNB-75): 22.2 µM (inactive) | GI50 (CCRF-CEM): 3.31 µM (inactive) | GI50 (HT-29): 24.5 µM (inactive) | GI50 (MDA-MB-231): 18.9 µM (inactive) | GI50 (SR): 14.7 µM (inactive)
